# According to patent US5342980A, “Fungicidal agents” (American Cyanamid Company, priority 1992, dated 1994):
# How the values were obtained:
# Pythium ultimum = assay: In vitro fungicidal evaluation, growth inhibition (PYTHUL); format: cell-based; set-up: scale not given here; details: 25 ppm, 3-4 days at 21° C.
# Experimental: (§1) Test compounds are dissolved in acetone and dispersed into cell well plates containing a suspension of ground fungal mycelia in a nutrient broth. Assay plates are incubated for 3-4 days at 21° C. Growth inhibition is measured visually and is rated using the following scale:
# (§2) Untreated controls, solvent blanks and reference standards are included in each test.
# (§3) Assay fungi include the plant pathogens, Pythium ultimum (Pythul); Rhizoctonia solani (Rhizso); Fusarium oxysporum f. sp. cucumerinum (Fusoxc); and Pseudocercosporella herpotrichoides (Psdche).
# (§4) When more than one test is run, the data are averaged.
# [1] = test system: Pseudocercosporella herpotrichoides; assay: In vitro fungicidal evaluation, growth inhibition (PSDCHE); format: cell-based; set-up: scale not given here; details: 25 ppm, 3-4 days at 21° C.
# Experimental: as §1, §2, §3, §4
# Rhizoctonia solani = assay: In vitro fungicidal evaluation, growth inhibition (RHIZSO); format: cell-based; set-up: scale not given here; details: 25 ppm, 3-4 days at 21° C.
# Experimental: as §1, §2, §3, §4
# [2] = test system: Fusarium oxysporum f. sp. cucumerinum; assay: In vitro fungicidal evaluation, growth inhibition (FUSOXC); format: cell-based; set-up: scale not given here; details: 25 ppm, 3-4 days at 21° C.
# Experimental: as §1, §2, §3, §4
# Plasmopara viticola = assay: In vivo fungicidal evaluation, Grape Downy Mildew (GDM); details: 200 ppm, plants sprayed before inoculation
# Cercospora beticola = assay: In vivo fungicidal evaluation, Sugar Beet Cercospora (SBC); details: plants sprayed before inoculation
# Venturia inaequalis = assay: In vivo fungicidal evaluation, Apple Scab (AS); details: 200 ppm, plants sprayed before inoculation
# Botrytis cinerea = assay: In vivo fungicidal evaluation, Pepper Botrytis (PB); details: 200 ppm, plants sprayed before inoculation
# [3] = test system: Erysiphe graminis f. sp. tritici; assay: In vivo fungicidal evaluation, Wheat Powdery Mildew (WPM); details: 200 ppm, plants sprayed before inoculation
# Alternaria solani = assay: In vivo fungicidal evaluation, Tomato Early Blight (TEB); details: 200 ppm, plants sprayed before inoculation
# Pyricularia oryzae = format: in vivo; details: 200 ppm, plants sprayed before inoculation
Molecule,"growth inhibition rating, PYTHUL (Pythium ultimum)","growth inhibition rating, PSDCHE [1]","growth inhibition rating, RHIZSO (Rhizoctonia solani)","growth inhibition rating, FUSOXC [2]","disease control rating, GDM (Plasmopara viticola)","disease control rating, SBC (Cercospora beticola; 200 ppm)","disease control rating, AS (Venturia inaequalis)","disease control rating, PB (Botrytis cinerea)","disease control rating, WPM [3]","disease control rating, TEB (Alternaria solani)","disease control rating, RB (Pyricularia oryzae)","disease control rating, SBC (Cercospora beticola; 400 ppm)"
"CN(O)C(=S)C(=O)C1(C)CC1 [N,1-dimethyl-alpha-thio-cyclopropaneglyoxylohydroxamic acid]",7.0,0.0,0.0,0.5,–,–,–,–,–,–,–,–
"CC(C)(C)C(=O)C(=S)N([O-])Cc1ccccc1.CC(C)(C)C(=O)C(=S)N([O-])Cc1ccccc1.[Cu+2] [N-benzyl-3,3-dimethyl-2-oxo-1-thiobutyrohydroxamic acid copper(+2) chelate]",1.5,0.0,1.5,0.0,–,–,–,–,–,–,–,–
"CC(C)N([O-])C(=S)C(=O)C(C)(C)C.CC(C)N([O-])C(=S)C(=O)C(C)(C)C.[Zn+2] [N-isopropyl-3,3-dimethyl-2-oxo-1-thiobutyrohydroxamic acid zinc (+2) chelate]",6.3,0.0,1.0,2.7,3.0,0.0,0.0,2.0,0.0,0.0,0.0,–
"CN(OC(=O)c1ccc(Cl)cc1)C(=S)C(=O)C(C)(C)C [p-Chlorobenzoate ester of N,3,3-trimethyl-2-oxo-1-thiobutyrohydroxamate]",0.0,0.0,0.0,0.0,0.0,4.0,8.0,8.0,3.0,6.0,6.0,–
"CC(C)(C)C(=O)C(=S)N(Cc1ccccc1)OC(=O)Nc1ccccc1 [Carbanilate ester of N-benzyl-3,3-dimethyl-2-oxo-1-thiobutyrohydroxamate]",6.0,0.0,2.5,0.5,–,–,–,–,–,–,–,–
CN(O)C(=S)C(=O)C12CC3CC(CC(C3)C1)C2 [N-methyl-α-thio-1-adamantaneglyoxylohydroxamic acid],7.0,3.3,1.0,1.7,0.0,1.8,0.0,0.0,0.0,0.0,0.0,3.0
N-methyl-alpha-thio-1-adamantaneglyoxylohydroxamic acid zinc(+2) chelate,1.5,0.0,0.0,0.0,0.0,0.5,0.0,0.0,0.0,0.0,0.0,3.0
"CC(C)(C)C(=O)C(=S)N(O)C1CCCC1.CC(C)(C)C(=O)C(=S)N(O)C1CCCC1.[Zn+2] [N-cyclopentyl-3,3-dimethyl-2-oxo-1-thiobutyrohydroxamic acid zinc(+2) chelate]",7.0,3.0,3.3,3.7,0.0,2.3,0.0,0.0,0.0,0.0,0.0,1.0
"CC(=O)ON(C)C(=S)C(=O)C(C)(C)C [acetate ester of N,3,3-trimethyl-2oxo-1-thiobutyrohydroxamate]",9.0,0.0,0.0,0.0,0.0,0.0,0.0,0.0,0.0,5.0,0.0,–
"C=CC(=O)ON(C)C(=S)C(=O)C(C)(C)C [acrylate ester of N,3,3-trimethyl-2-oxo-1-thiobutyrohydroxamate]",9.0,7.0,0.0,0.0,0.0,0.0,0.0,2.0,0.0,0.0,0.0,–
"CC(C)(C)C(=O)C(=S)N([O-])Cc1ccccc1.CC(C)(C)C(=O)C(=S)N([O-])Cc1ccccc1.[Zn+2] [N-benzyl-3,3-dimethyl-2-oxo-1-thiobutyrohydroxamic acid zinc(+2) chelate]",4.0,0.0,0.0,0.0,0.0,6.0,0.0,0.0,0.0,0.0,0.0,–
"CC(C)(C)C(=O)C(=S)N(O)C1CCCC1 [N-cyclopentyl-3,3-dimethyl-2-oxo-1-thiobutyrohydroxamic acid]",3.0,1.5,1.5,1.5,0.0,0.3,0.0,0.0,0.0,0.0,0.0,–
"COC(=O)ON(C)C(=S)C(=O)C(C)(C)C [methylcarbonate ester of N,3,3-trimethyl-2-oxo-1thiobutyrohydroxamate]",5.0,0.0,0.0,0.0,0.0,0.0,0.0,0.0,0.0,2.0,0.0,–
CN([O-])C(=S)C(=O)C12CC3CC(CC(C3)C1)C2.CN([O-])C(=S)C(=O)C12CC3CC(CC(C3)C1)C2.[Cu+2] [N-methyl-alpha-thio-1-adamantaneglyoxylohydroxamic acid copper(+2) chelate],0.0,0.0,0.0,0.0,0.0,0.5,0.0,0.0,0.0,0.0,0.0,1.8
"CC(C)(C)C(=O)C(=S)N([O-])C1CCCC1.CC(C)(C)C(=O)C(=S)N([O-])C1CCCC1.CC(C)(C)C(=O)C(=S)N([O-])C1CCCC1.[Fe+3] [N-cyclopentyl-3,3-dimethyl-2-oxo-1-thiobutyrohydroxamicacid iron(+3) chelate]",0.0,0.0,0.0,0.0,0.0,0.8,0.0,0.0,0.0,0.0,0.0,1.8
"CC(C)(C)C(=O)C(=S)N(O)Cc1ccccc1 [N-benzyl-3,3-dimethyl-2-oxo-1-thiobutyrohydroxamic acid]",7.0,7.0,4.5,3.5,–,–,–,–,–,–,–,–
"CC(C)(C)C(=O)C(=S)N([O-])C1CCCC1.CC(C)(C)C(=O)C(=S)N([O-])C1CCCC1.[Cu+2] [N-cyclopentyl-3,3-dimethyl-2-oxo-1-thiobutyrohydroxamic acid copper(+2) chelate]",0.0,0.0,0.0,0.0,0.0,0.5,0.0,0.0,0.0,0.0,0.0,2.0
